Reference: US20070191324A1, “Methods for treatment or prophylaxis of aldosterone-mediated pathogenic effects in a subject using an epoxy-steroidal aldosterone antagonist” (priority 1999, published 2007)
Where two headings read alike, the source gives them in different places.

What was measured:
[1] = system: captopril-treated saline-drinking SHRSP; assay: Angiotensin II-induced renal damage in captopril-treated saline-drinking SHRSP, Protocol 2 (Example A-8); type: in vivo, rat (SHRSP/A3N)
Method: Animals. Studies were conducted in accordance with institutional guidelines using male SHRSP/A3N (generations F-75 to F-78), n=37, from our local colony. These animals were bred from NIH stock, derived from the SHRSP/A3N substrain described originally by Okamoto and coworkers (Okamoto K et al. Circ. Res. 34 and 35 (suppl I):I-143-I-153.). All animals were housed in a room maintained on a 12:12-h light:dark-cycle and an ambient temperature of 22±1° C. in the Animal Care Facility at New York Medical College. Rats were weaned at 4 weeks of age and allowed free access to Purina Lab Chow 5001 (Ralston Purina, St. Louis, Mo.) and tap water until the initiation of experimental protocols.
SHRSP were placed on Stroke-Prone Rodent Diet (#39-288, Zeigler Bros Inc., Gardners, Pa.) and 1% NaCl drinking solution ad libitum starting at 8.3 weeks of age. […] Animals were handled and weighed daily. Urine samples were collected for the assessment of proteinuria. Systolic blood pressure and heart rate were measured each week. After 2 weeks of treatment, animals were decapitated, trunk blood was collected into chilled EDTA tubes, and the kidneys were removed, blotted dry, and immediately weighed. Coronal sections of kidney were fixed and later processed for light microscopic evaluation.
Assays and Analyses. Systolic blood pressure and heart rate of awake animals were measured by tail-cuff plethysmography using a Natsume KN-210 manometer and tachometer (Peninsula Laboratories Inc., Belmont, Calif.). Rats were warmed at 37° C. for 10 min and allowed to rest quietly in a Lucite chamber before measurement of blood pressure. Measurements of urine volume were made gravimetrically. Urinary protein concentration was determined by the sulfosalicylic acid turbidity method. Plasma aldosterone was measured by radioimmunoassay using ^125I-aldosterone as a tracer (Coat-a Count Aldosterone, Diagnostic Products Co., Los Angeles, Calif.).
Histology. Kidneys were preserved in 10% phosphate-buffered formalin. Coronal sections (2-3 μm) were stained with hematoxylin and eosin and examined by light microscopy in a blinded fashion as previously described (Stier C T et al. J Pharmacol Exp Ther (1992) 260:1410-1415). Glomerular damage was categorized as ischemic or thrombotic. Ischemic lesions were defined as retraction of glomerular capillary tufts with or without appreciable mesangiolysis. Glomerular thrombotic lesions were defined as any one of a combination of the following: segmental to global fibrinoid necrosis, focal thrombosis of glomerular capillaries, swelling and proliferation of intracapillary (endothelial and mesangial) and/or extracapillary cells (crescents), and expansion of reticulated mesangial matrix with or without significant hypercellularity. […] Vascular thrombotic lesions were defined as any one or a combination of the following: mural fibrinoid necrosis, extravasation and fragmentation of red blood cells, and luminal and/or mural thrombosis. Proliferative arteriopathy was characterized by proliferation of markedly swollen myointimal cells with swollen round to ovoid vesicular nuclei surrounded by mucinous extracellular matrix (“onion skinning”) often resulting in nodular thickening. Vascular damage was expressed as the number of arteries and arterioles with lesions per 100 glomeruli. The presence of casts and tubular (ischemic) retraction and simplification was assessed semiquantitatively.
Statistical Analysis. Significant effects with respect to treatment and time were determined by two-way analysis of variance. Data with only one grouping variable were analyzed statistically by Student's unpaired t tests. When more than two groups were compared, one-way analysis of variance was performed followed by the post-hoc Newman-Keul's multiple comparison test. Data were analyzed using version 2.01 of the GraphPad Prism statistical software package (GraphPad Software Inc., San Diego, Calif.). P<0.05 was considered statistically significant.

[2] = system: patients with hypertension and left ventricular hypertrophy; assay: Eplerenone, enalapril and combination in left ventricular hypertrophy, 9 months (Examples A-15, D-4); type: in vivo, human
Description: Table […] illustrates forth the above-described dosing scheme. […] Additional laboratory assessments of blood for clinical safety will be done monthly. Routine urinalysis will be done every three months. […] A blood sample for genotyping will be collected at Week 0. At screening and at Month 9, a 12-lead ECG and physical examination will be done. […] In case of early termination, an MRI and blood sample for TSH will be done for those patients who have received double-blind treatment for at least three months. At Weeks 0, 12 and Months 6 and 9, pharmacoeconomic data will be collected on all patients. The primary measure of efficacy is the change from baseline in LVM, as assessed by MRI, in the eplerenone group versus the enalapril group. […] Secondary measures of efficacy will be the following: […] (3) aortic compliance and ventricular filling parameters; and (4) special studies (PIIINP, microalbuminuria, PAI, and tPA). Additionally, the long-term safety and tolerability of the three treatment groups will be compared. […] The study design is illustrated in FIG. D-10. […] Left ventricular mass (LVM) (assayed by MRI), BP, collagen turnover, and tolerability were assessed at the 9-month endpoint.

[3] = system: patients with mild-to-moderate hypertension; assay: Eplerenone versus enalapril in essential hypertension, 12-month titration-to-effect (Example D-3); type: in vivo, human
Method: The study design is illustrated in FIG. D-6. Patients with mild-to-moderate hypertension (diastolic blood pressure [DBP]≧95 mmHg and <110 mmHg) were randomized to receive initially EPL 50 mg QD (n=253) or ENAL 10 mg QD (n=246). If DBP ≧90 mmHg at Weeks 4, 8, 12, 16, or 20, the dose of study medication was up-titrated incrementally to EPL 100 mg and 200 mg QD, or ENAL 20 mg and 40 mg QD. […] At 24 wks and 12 months, changes in BP, RAAS hormone profile, urinary albumin excretion (urinary albumin: creatinine ratio [UACR]), laboratory tests, safety, and adverse events (AEs) were assessed.

[4] = system: diabetic type 2 patients with hypertension and microalbuminuria; assay: Eplerenone, enalapril and combination in diabetic hypertensives with microalbuminuria, 24 weeks (Examples A-18, D-7); type: in vivo, human
[5] = system: patients with mild to moderate hypertension; assay: Eplerenone/HCTZ dose ranging factorial design study (Example D-2); type: in vivo, human; settings: eplerenone 25, 50 or 200 mg daily; HCTZ 12.5 or 25 mg daily; 8 weeks
Method: Patients were assessed at weeks 0, 2, 4, and 8. Study assessments at protocol-specified timepoints included blood pressure (BP), heart rate, clinical laboratory analyses, vital signs, physical examinations, 12-lead ECG, and monitoring of adverse events. A total of 614 patients were randomized.

[6] = system: patients with low-renin hypertension; assay: Eplerenone versus losartan in low-renin hypertension, 16 weeks (Examples A-16, D-5); type: in vivo, human
Description: Patients will continue on therapy until Week 16. Table […] illustrates the above-described dosing scheme. […] Plasma renin will be determined at screening; serum aldosterone, plasma renin, and plasma cortisol will be determined at Weeks 0, 8, and 16. […] A 12-lead electrocardiogram will be done at Weeks 0 and 16. Physical examinations will be completed at screening and at Week 16. […] Secondary measures of efficacy will be the following: […] Study design is illustrated in FIG. D-16. […] At Weeks 8 and 16, BP, RAAS hormone profile, and safety were assessed.

[7] = system: black and white patients with mild-to-moderate hypertension; settings: for Active Renin (% change) / ΔDBP / ΔSBP: baseline to Week 16
[8] = captopril 50 mg/kg/d, angiotensin II 25 ng/min, eplerenone 100 mg/kg/d, 2 weeks
[9] = 9-month endpoint, forced titration
[10] = 9-month endpoint, EPL 200 mg, ENAL 40 mg, EPL 200 mg/ENAL 10 mg
[11] = Week 24, EPL 50-200 mg QD, ENAL 10-40 mg QD titrated
[12] = Week 8 (monotherapy), EPL 100-200 mg QD, LOS 50-100 mg QD
[13] = Week 16, after allowed addition of HCTZ

With `C[C@H](CS)C(=O)N1CCC[C@H]1C(=O)O` [Captopril] the “Glomerular damage, Total” value [1, 8] was 0 ± 0 lesions/100 glomeruli, the “Renal arteriopathy, Proliferative” value [1, 8] was 0 ± 0 lesions/100 glomeruli and the “Renal arteriopathy, Thrombotic” value [1, 8] was 0 ± 0 lesions/100 glomeruli. For the same compound, the “Renal arteriopathy, Total” value [1, 8] was 0 ± 0 lesions/100 glomeruli, the plasma aldosterone concentration [1, 8] was 107 ± 26 pg/mL and the “tubules with ischemic retraction and simplification” value [1, 8] was “absent”.
With `CCOC(=O)[C@H](CCc1ccccc1)N[C@@H](C)C(=O)N1CCC[C@H]1C(=O)O` [Enalapril, reference compound] the “DBP Adjusted mean change” value [2, 9] was −13.0 mmHg, the “SBP Adjusted mean change” value [2, 9] was −22.5 mmHg and the “decrease from baseline in UACR” value [2, 10] was −39.1%. The “decrease from baseline in collagen turnover” value [2, 10] was −7.3%, the patients experiencing coughing ([2]; 9-month study) was 14.1% and the “LVM Adjusted mean change [g (SE)]” value ([2]; left ventricular mass by MRI, 9-month endpoint, forced titration (EPL 50-200 mg, ENAL 10-40 mg)) was −19.7 (3.20) g. For the same compound, the patients experiencing coughing ([3]; 12-month study) was 6.5%, the patients experiencing hyperglycemia ([3]; 12-month study) was 2.8% and the “patients experiencing urinary tract infections (UTI)” value ([3]; 12-month study) was 2.8%. For the same compound, the DBP change ([3]; 12 months) was −14.1 mmHg, the SBP change ([3]; 12 months) was −14.8 mmHg and the DBP change [3, 11] was −11.3 mmHg. The SBP change [3, 11] was −12.7 mmHg, the “reduction in UACR” value ([3]; Week 24, patients with baseline UACR ≧30 mg/g) was −25.7% and the safety and tolerability ([3]; in vivo) was “safe and well tolerated”. For the same compound, the “patients withdrawn for hyperkalemia” value ([4]; 24 weeks) was 2 patients, the “subjects with elevated K+ (≧6.0 mEq/L)” value ([4]; 24 weeks) was 2 subjects and the “patients requiring addition of hydrochlorothiazide (HCTZ)” value ([4]; EPL 200 mg QD, ENAL 40 mg QD, EPL 200 mg/ENAL 10 mg, 24 weeks) was 43/81. The “Adjusted mean change ΔDBP (Week 8-baseline)” value ([4]; Week 8) was −11.6, the “Adjusted mean change ΔSBP (Week 8-baseline)” value ([4]; Week 8) was −15.4 and the “Adjusted mean change ΔDBP (Week 24-baseline)” value ([4]; Week 24) was −15.0. The “Adjusted mean change ΔSBP (Week 24-baseline)” value ([4]; Week 24) was −20.4 and the tolerability ([4]; in vivo) was “well tolerated”.
`NS(=O)(=O)c1cc2c(cc1Cl)NCNS2(=O)=O` [HCTZ, reference compound] was tested, and the “DBP, change from Baseline to the Final Visit” value [5] was “dose-dependent decreases in DBP” and the “SBP, change from Baseline to the Final Visit” value [5] was “dose-dependent decreases in SBP”.
For `CCCCc1nc(Cl)c(CO)n1Cc1ccc(-c2ccccc2-c2nn[nH]n2)cc1` [Losartan, reference compound], the “cumulative percentage of patients requiring HCTZ add-on therapy” value ([6]; 16 weeks) was 55.6%, the “increase in active renin levels” value ([6]; Week 8) was “+63.8%” and the “increase in serum aldosterone levels” value ([6]; Week 8) was −18.7%. For the same compound, the “mean change from baseline in DBP” value [6, 12] was −6.7 mmHg, the “mean change from baseline in SBP” value [6, 12] was −10.1 mmHg and the “increase in active renin levels” value ([6]; Week 16) was “+83.3%”. For the same compound, the “increase in serum aldosterone levels” value ([6]; Week 16) was −5.5%, the “mean change from baseline in DBP” value [6, 13] was −9.8 mmHg and the “mean change from baseline in SBP” value [6, 13] was −15.0 mmHg. The “Active Renin (% change)” value ([7]; All Patients) was “+67.1%”, the ΔDBP ([7]; All Patients) was −6.9 mmHg and the ΔSBP ([7]; All Patients) was −6.3 mmHg. The “Active Renin (% change)” value ([7]; Black Patients) was “+40.0%”, the ΔDBP ([7]; Black Patients) was −6.0 mmHg and the ΔSBP ([7]; Black Patients) was −5.3 mmHg. The “adjusted mean percent change from baseline in UACR” value ([7]; Week 16, EPL 50-200 mg QD, LOS 50-100 mg QD) was −18.2%, the “Active Renin (% change)” value ([7]; White Patients) was “+113.7%” and the ΔDBP ([7]; White Patients) was −8.4 mmHg. For the same compound, the safety and tolerability ([7]; human, in vivo) was “safe and well-tolerated”.
With “Angiotensin II: Angiotensin II (human type) infused by osmotic minipump (DRVYIHPF; Angiotensin-2; UniProt P01019 25-32, looked up)” the “Glomerular damage, Ischemic” value [1, 8] was 13 ± 3 lesions/100 glomeruli, the “Glomerular damage, Thrombotic” value [1, 8] was 2 ± 1 lesions/100 glomeruli and the “Glomerular damage, Total” value [1, 8] was 15 ± 3 lesions/100 glomeruli. For the same compound, the “Renal arteriopathy, Proliferative” value [1, 8] was 1 ± 1 lesions/100 glomeruli, the “Renal arteriopathy, Thrombotic” value [1, 8] was 15 lesions/100 glomeruli and the “Renal arteriopathy, Total” value [1, 8] was 16 ± 2 lesions/100 glomeruli. For the same compound, the plasma aldosterone concentration [1, 8] was 404 ± 160 pg/mL, the renal damage ([1]; captopril + angiotensin II 25 ng/min, with eplerenone 100 mg/kg/d or vehicle) was 18±4% and the “proteinuria (urinary protein excretion)” value ([1]; end of study (2 weeks), captopril 50 mg/kg/d, angiotensin II 25 ng/min s.c., eplerenone 100 mg/kg/d by gavage) was 96 ± 13 mg/day.
